Our source for the MIC and IC50 values is patent US7323596B2, “Antimicrobial agents” (De Novo Pharmaceuticals Ltd., priority 2000, dated 2008).

Molecules are shown by their SMILES. ≈ marks a conversion by molar mass, not a printed value.

In assay [1] the test system is Haemophilia influenza. Put plainly: MIC by standard agar plate dilution method. Format: cell-based. As to the method:
The susceptibilities of strains of bacteria to the compound of Example 1 were determined by a standard agar plate dilution method following recommendations in British Society for Antimicrobial Chemotherapy Working Party. 1991, “A guide to sensitivity testing British Society for Antimicrobial Chemotherapy, London, United Kingdom”. Briefly, Iso-Sensitest agar (pH 7.2: Oxoid, United Kingdom) is employed, supplemented with 5% horse blood (Oxoid) and 20 μg of NAD (Sigma) per ml are added to support growth of fastidious bacteria. The inoculum used is approximately 10^4 colony forming units of each isolate contained in a volume of 1 μl. Plates are incubated 18 to 24 hr in air, or for fastidious bacteria an atmosphere enriched with 4-6% carbon dioxide at 35° C. The MIC is determined as the lowest concentration of an Antimicrobial tested that inhibited growth of the inoculum, disregarding a single persisting colony or faint haze caused by the inoculation.

Assay [2] deals with E coli PDF (Ni) (Escherichia coli, UniProt P0A6K3). Put plainly: inhibition of the PDF E. coli (Ni) enzyme. Format: biochemical. The conditions noted are these: Ni form of E. coli PDF enzyme. The protocol:
Examples 2-5 were prepared in a manner analogous to example 1. Also shown is there inhibition of the PDF E. coli(Ni) enzyme.

E coli PDF (Ni), sequence (P0A6K3 whole entry): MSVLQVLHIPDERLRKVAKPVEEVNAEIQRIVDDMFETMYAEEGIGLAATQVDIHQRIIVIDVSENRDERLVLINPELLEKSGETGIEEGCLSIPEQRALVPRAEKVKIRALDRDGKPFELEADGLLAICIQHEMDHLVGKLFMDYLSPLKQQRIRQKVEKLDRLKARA

In assay [1], `CCCC[C@H](CN(O)C=O)NC(=O)Cc1cccc2ccccc12` [Example 1, N-{1R-[(Formyl-hydroxy-amino)-methyl]-pentyl}2-naphthalen-1-yl-acetamide] returned an MIC of 0.5 to 2 µg/mL (≈ 1.52 to 6.09 µM).
For `CCCC[C@H](CN(O)C=O)NC(=O)c1cn(CC)c2cc3c(cc2c1=O)OCO3` [Example 2, 5-Ethyl-8-oxo-5,8-dihydro-[1,3]dioxolo[4,5]quinoline-7-carboxylic acid {1R-[(formyl-hydroxy-amino)-methyl]-pentyl}amide], the IC50 – broadly, the midpoint of a concentration-inhibition curve – in assay [2] was 30 nM.
For `CCCC[C@H](CN(O)C=O)NC(=O)c1cn(C2CCCCC2)c2ccccc2c1=O` [Example 3, 1-Cyclohexyl-4-oxo-1,4-dihydro-quinoline-3-carboxylic acid {1R[(formyl-hydroxy-amino)-methyl]-pentyl}-amide], the IC50 in assay [2] turned out to be 60 nM.
Still for that read-out and setting: as for `CCCC[C@H](CN(O)C=O)NC(=O)c1cn(CC)c2ccc(Cl)cc2c1=O` [Example 4, 6-Chloro-1-ethyl-4-oxo-1,4-dihydro-quinoline-3-carboxylic acid {1R[(formyl-hydroxy-amino)-methyl]-pentyl}-amide], the figure is 20 nM.
As for `CCCC[C@H](CN(O)C=O)NC(=O)c1coc2ccccc2c1=O` [Example 5, 4-Oxo-4H-chromene-3-carboxylic acid {1R-[(formyl-hydroxy-amino)-methyl]-pentyl}amide], the IC50 in assay [2] is 200 nM.
